Laboratory results: patent US6605644B2, “Analgesic regimen” (Ortho-McNeil Pharmaceutical, Inc., priority 1999, dated 2003)
Where a name gives a salt, the structure may show the parent alone.

Experiments:
[1] = cited from earlier work; for peak plasma concentration: mean±standard deviation
[2] = Example 1: randomized double-blind study of 1-, 4- or 10-day titration to 200 mg/day in patients with chronic joint pain; format: in vivo; conditions: 10-day titration group (50 mg increments every 3 days to 200 mg/day) compared with 1-day and 4-day titration groups, 14 days
Method: A total of 465 patients with chronic joint pain were enrolled in the study and randomized into one of four treatment groups for 14 days. Patients continued on their prestudy dose of NSAIDs while concurrently receiving tramadol or placebo. Tramadol groups were titrated at three different rates to achieve the study target dose of 200 mg/day. […] Discontinuation due to any adverse event was similarly analyzed. If the trend was statistically significant, pairwise comparisons were performed to determine the statistical significance between titration rates.
The study protocol was approved by an Institutional Review Board at each study site and informed consent regarding the risks and benefits of participation was obtained for all patients.
Patients with chronic joint pain who had been receiving a maintenance dose (±25%) of NSAID for at least 30 days, and who required additional pain relief, were randomized into three titration groups and a placebo group using a 2:2:2:1 randomization schedule. […]

[3] = cited from earlier work
[4] = Example 2: open-label run-in and double-blind study of 10-, 16- or 13-day titration in subjects with chronic pain
μ opioid receptors = μ opioid receptors (Homo sapiens, UniProt P35372); conditions: cited from earlier work
μ opioid receptors, sequence (P35372 whole entry): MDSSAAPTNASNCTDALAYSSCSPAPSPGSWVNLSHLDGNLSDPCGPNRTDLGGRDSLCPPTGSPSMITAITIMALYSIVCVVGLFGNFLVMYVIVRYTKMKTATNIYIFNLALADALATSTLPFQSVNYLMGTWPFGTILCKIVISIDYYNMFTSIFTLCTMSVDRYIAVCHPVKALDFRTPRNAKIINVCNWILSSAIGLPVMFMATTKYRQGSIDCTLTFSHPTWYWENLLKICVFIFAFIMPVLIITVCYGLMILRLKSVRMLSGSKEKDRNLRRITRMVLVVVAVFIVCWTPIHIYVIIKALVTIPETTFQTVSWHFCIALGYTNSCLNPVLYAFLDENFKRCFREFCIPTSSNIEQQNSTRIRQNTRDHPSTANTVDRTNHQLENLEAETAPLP

[5] = single 100 mg oral dose, healthy subjects
[6] = double-blind phase, 10-day titration group
[7] = double-blind phase, 13-day titration group
[8] = double-blind phase, 16-day titration group

SMILES | peak plasma concentration [1, 5] | terminal plasma elimination half-life [1, 5] | time of peak plasma concentration after administration [1, 5] | discontinuations due to dizziness and/or vertigo, nausea and/or vomiting, and any other adverse event [2] | bound to plasma proteins [3] | median time to discontinuation due to any adverse event [4, 6] | median time to discontinuation due to nausea and/or vomiting [4, 6] | mean reduction from baseline PVA scores ([4]; double-blind phase, 10-day titration group (200 mg/day)) | median time to discontinuation due to any adverse event [4, 7] | median time to discontinuation due to nausea and/or vomiting [4, 7] | mean reduction from baseline PVA scores ([4]; double-blind phase, 13-day titration group (150 mg/day)) | median time to discontinuation due to any adverse event [4, 8] | median time to discontinuation due to nausea and/or vomiting [4, 8] | mean reduction from baseline PVA scores ([4]; double-blind phase, 16-day titration group (200 mg/day)) | mean reduction from baseline PVA scores ([4]; open-label/run-in phase, titrated to 200 mg/day over four days) | advantage in cumulative proportion of subjects who discontinued due to nausea and/or vomiting ([4]; titration to 200 mg/day over 10 days versus over 16 days) | binding affinity to μ receptors (μ opioid receptors) | absorption after oral administration ([1]; oral administration)
CN(C)C[C@H]1CCCC[C@]1(O)c1cccc(O)c1 [mono-O-desmethyl tramadol, mono-O-desmethyltramadol] | 55 ± 20 ng/mL | 7.4 ± 1.4 h | approximately three |  |  |  |  |  |  |  |  |  |  |  |  |  |  | 
COc1cccc(C2(O)CCCCC2CN(C)C)c1 (centres unmarked) [tramadol hydrochloride, 2-[(dimethylamino)methyl]-1-(3-methoxyphenyl)cyclohexanol] | 308 ± 78 ng/mL |  | two | fewest discontinuations | 20.2% | 9.0 days | 9.0 days | 1.4 cm | 6.5 days | 5.5 days | 1.6 cm | 6.0 days | 4.0 days | 1.5 cm | 2.1 cm | 20 percentage | low-affinity binding | rapidly and almost completely absorbed
